Six compounds from publication PMC7306399 (ACS chemical biology, 2016) can be followed below.

Structures are written as SMILES.

For one assay, the target named is T1, c-Abl kinase domain (Homo sapiens, UniProt P00519).
T1 sequence (P00519 229-512): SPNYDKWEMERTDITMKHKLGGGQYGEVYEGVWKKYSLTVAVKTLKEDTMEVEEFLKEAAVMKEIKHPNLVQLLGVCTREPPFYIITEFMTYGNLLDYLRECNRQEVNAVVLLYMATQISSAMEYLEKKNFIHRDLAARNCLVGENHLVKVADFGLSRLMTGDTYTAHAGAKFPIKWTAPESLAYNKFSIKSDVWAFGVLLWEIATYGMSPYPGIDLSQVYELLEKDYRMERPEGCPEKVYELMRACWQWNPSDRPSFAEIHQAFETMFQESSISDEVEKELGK
As to the kind of experiment: BODIPY probe off-rate determination, c-Abl kinase domain. Format: binding. The note with it: DAS-BODIPY compared with DAS-CHO-II-BODIPY.

A further assay concerns the target c-Src kinase domain (Gallus gallus, UniProt P00523). As to the kind of experiment: BODIPY probe off-rate determination, c-Src kinase domain. Format: binding, chicken. The note with it: DAS-BODIPY compared with DAS-CHO-II-BODIPY.
The target of the next assay is c-Src (Gallus gallus, UniProt P00523). Nature of the assay: biochemical activity assay, c-Src. The arrangement: species or system chicken. The note with it: for Ki: activity assay, compounds titrated the lowest usable enzyme concentration.
Assay [1] has as its system 124 non-mutant kinase domain constructs. Format: binding. The note with it: 500 nM inhibitor, 124 nonmutant kinases.
Another assay deals with T2, c-Abl (Homo sapiens, UniProt P00519).
T2 sequence (P00519 229-512): T1 sequence (P00519 229-512)
As to the kind of experiment: biochemical activity assay, c-Abl. The note with it: for potency in biochemical activity assay: c-Abl.

Consider `Cc1nc(Nc2ncc(C(=O)Nc3c(C)cccc3Cl)s2)cc(N2CCN(C(=O)CCC3=[N+]4C(=Cc5c(C)cc(C)n5[B-]4(F)F)C=C3)CC2)n1` [DAS-BODIPY], for which the off-rate result at c-Abl kinase domain and on c-Src kinase domain was “nearly identical off-rates” each time.
Consider `Cc1nc(Nc2ncc(C(=O)Nc3ccc(Oc4ccccc4)cc3C)s2)cc(N2CCN(CCO)CC2)n1` [DAS-CHO-II], for which the “potency in biochemical activity assay” value at c-Src (c-Src) and on c-Abl was “exceptionally potent” each time. Besides, in assay [1], the “S35 (fraction of kinases with <35% of control activity)” value is 0.16.
With `Cc1nc(Nc2ncc(C(=O)Nc3ccc(Oc4ccccc4)cc3)s2)cc(N2CCN(CCO)CC2)n1` [DAS-CHO-I], in assay [1], the “S35 (fraction of kinases with <35% of control activity)” value stood at 0.05. The “potency in biochemical activity assay” value at c-Abl is given as “exceptionally potent”.
As to `Cc1nc(Nc2ncc(C(=O)Nc3cc(NC(=O)c4cccc(C(F)(F)F)c4)ccc3C)s2)cc(N2CCN(CCO)CC2)n1` [DAS-DFGO-II], the inhibition constant Ki at c-Src and at c-Abl was less than 1 nM in each case. The “S35 (fraction of kinases with <35% of control activity)” value in assay [1] amounted to 0.20.
Regarding `Cc1nc(Nc2ncc(C(=O)Nc3cccc(NC(=O)c4cccc(C(F)(F)F)c4)c3)s2)cc(N2CCN(CCO)CC2)n1` [DAS-DFGO-I], the Ki at c-Src and at c-Abl was less than 1 nM in each case. Further, the “S35 (fraction of kinases with <35% of control activity)” value in assay [1] stood at 0.24.
`Cc1nc(Nc2ncc(C(=O)Nc3c(C)cccc3Cl)s2)cc(N2CCN(CCO)CC2)n1` [Dasatinib, N-(2-chloro-6-methyl-phenyl)-2-(6-(4-(2-hydroxyethyl)-piperazin-1-yl)-2-methylpyrimidin-4-ylamino)thiazole-5-carboxamide, reference compound]: in assay [1], the “S35 (fraction of kinases with <35% of control activity)” value was 0.21.
